In publication PMC8831383, “Visualization-Based Discovery of Vanin-1 Inhibitors for Colitis” (Frontiers in Chemistry, 2022):

Tests used:
vanin-1 = test system: vanin-1; parameters: method as in Jansen et al., 2013; settings: ref Jansen et al., 2013; cited from earlier work
Vanin-1 enzyme [1] = biological target: T1, Vanin-1 enzyme (Homo sapiens, UniProt O95497); test: Inhibition of Vanin-1 enzyme at the cellular level in ES-2-Fluc cells with bioluminescent probe PA-AL; assay type: cell-based; settings: 30 min incubation with inhibitor, probe PA-AL 20 μM
T1 construct: endogenous in cells; host or cells: ES-2-Fluc (human ovarian cancer cells expressing firefly luciferase)
T1 sequence (O95497 22-513): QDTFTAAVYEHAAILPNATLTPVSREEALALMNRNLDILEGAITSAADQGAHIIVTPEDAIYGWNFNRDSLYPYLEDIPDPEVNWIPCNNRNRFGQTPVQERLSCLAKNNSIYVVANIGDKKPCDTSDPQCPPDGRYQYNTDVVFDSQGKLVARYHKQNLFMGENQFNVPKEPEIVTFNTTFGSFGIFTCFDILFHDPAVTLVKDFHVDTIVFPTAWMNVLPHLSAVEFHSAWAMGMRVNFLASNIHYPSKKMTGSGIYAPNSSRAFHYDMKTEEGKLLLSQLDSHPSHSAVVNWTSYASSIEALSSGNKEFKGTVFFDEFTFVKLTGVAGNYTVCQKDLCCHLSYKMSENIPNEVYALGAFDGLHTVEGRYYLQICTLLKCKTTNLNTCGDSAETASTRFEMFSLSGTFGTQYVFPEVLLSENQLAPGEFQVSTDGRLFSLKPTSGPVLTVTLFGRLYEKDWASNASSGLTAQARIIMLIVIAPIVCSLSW
Protocol: This study explores the inhibition of Vanin-1 enzyme at the cellular level using firefly luciferase labeled human ovarian cancer cells (ES-2-Fluc) and the bioluminescent probe PA-AL.
Take a black 96-well plate with a transparent bottom, dilute the cells to a cell suspension with a concentration of 4 × 10^5 cells/ml, add 100 μl to each well to reach about 40,000 cells in each well, and incubate at 37°C for 12 h. Dilute the lead compound and each inhibitor to be tested to the final concentration of 200, 100, 50, 25, 12.50, 6.25, 3.13, 1.56, and 0.78 μM, and add 100 μl to each well. After mixing, transfer to a shaker at 37°C and incubate the cells with the inhibitor for 30 min. Prepare bioluminescent probe PA-AL solution with a concentration of 20 μM. Immediately after adding, put it into in vivo imaging for bioluminescence imaging. The bioluminescence intensity value of each hole was analyzed by the software of the living body imager, and the exposure time was 1 min. Graphpad Prism software is used to draw the IC50 value of each inhibitor to be tested.

[2] = biological target: T2, human recombinant VNN1 enzyme (Homo sapiens, UniProt O95497); test: Inhibitory activity against human recombinant VNN1 enzyme in vitro with fluorescent probe PA-AFC; assay type: biochemical; settings: human recombinant VNN1 30 ng/ml, probe PA-AFC 20 μM, 37°C, 30 min + 30 min
T2 sequence (O95497 22-513): T1 sequence (O95497 22-513)
Protocol: This study was used human recombinant VNN1 enzyme and fluorescent probe PA-AFC to determine the IC50 value of inhibitors.
Dilute the lead compound and each inhibitor to be tested with buffer to, for example, 400, 200, 100, 50, 25, 12.50, 6.25, 3.13, and 1.56 μM, 781 nM, 391 nM The gradient concentration of the solution. Prepare the human recombinant VNN1 enzyme solution at a concentration of 30 ng/ml. Prepare the fluorescent probe PA-AFC solution with a concentration of 20 μM.
Add 50 μl of gradient concentration of the inhibitor to be tested to each well of the black 96-well plate, and then continue to add 50 μl of the newly prepared human recombinant VNN1 enzyme solution to each well. Among them, the control group and the blank group were replaced with the same volume of buffer. After the solution is mixed, place the black 96-well plate on a shaker at 37°C for 30 min. Continue to add 100 μl of the prepared fluorescent probe solution to each well of the black 96-well plate. After mixing, place the black 96-well plate on a shaker at 37°C and incubate for 30 min. Take the black 96-well plate out of the shaker and place it in a POLARstar Omega microplate reader. Use a 420 nm filter for the excitation light and a 510 nm filter for the emission light. Record the fluorescence intensity data at 510 nm. Through GraphpadPrism mapping, the IC50 value of each inhibitor to be tested was obtained.

vanin-1 enzyme [3] = biological target: T3, vanin-1 enzyme (Mus musculus, UniProt Q9Z0K8); test: Inhibition of vanin-1 in transgenic mice in vivo, bioluminescence imaging with probe PA-AL; parameters: species or system FVB-luc + mice; settings: gavage, lead compound 25 mg/kg, compound a 50 mg/kg, PA-AL i.p. 1.5 h later
T3 construct: from tissue; host or cells: whole living FVB-luc+ transgenic mice
T3 sequence (Q9Z0K8 24-512): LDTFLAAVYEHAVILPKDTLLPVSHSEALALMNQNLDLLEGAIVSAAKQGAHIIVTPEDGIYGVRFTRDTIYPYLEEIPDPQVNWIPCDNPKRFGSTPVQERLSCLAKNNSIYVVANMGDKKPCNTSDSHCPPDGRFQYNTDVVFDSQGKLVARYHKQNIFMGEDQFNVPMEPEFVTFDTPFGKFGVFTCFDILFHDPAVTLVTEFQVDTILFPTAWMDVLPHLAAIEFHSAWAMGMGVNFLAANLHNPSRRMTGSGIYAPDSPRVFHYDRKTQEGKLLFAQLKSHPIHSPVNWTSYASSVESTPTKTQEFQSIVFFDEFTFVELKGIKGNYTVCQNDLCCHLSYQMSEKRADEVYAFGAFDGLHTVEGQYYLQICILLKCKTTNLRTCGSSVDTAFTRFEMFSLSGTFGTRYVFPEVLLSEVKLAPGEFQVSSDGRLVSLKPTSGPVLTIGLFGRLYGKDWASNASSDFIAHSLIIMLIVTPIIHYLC
Protocol: We divided FVB-luc + mice into three groups: • (1) Control group: gavage lead compound, the dose is 25 mg/kg, the gavage volume is 200 μl; • (2) Experimental group: gavage compound a, the dose is 50 mg/kg, the gavage volume is 200 μl; • (3) Blank group: Administer normal saline, the volume of intragastric administration is 200 μl.
After intragastric administration, mice were fed routinely for 1.5 h, and then mice in each group were anesthetized with 4% chloral hydrate solution and injected intraperitoneally with physiological saline solution of bioluminescent probe PA-AL (1 mM, 200 μl). In 55 min, the bioluminescence imaging of the whole body of each group of mice was measured every 5 min, and then the bioluminescence intensity was obtained by analyzing the images with the software of the in vivo imager.

[4] = test system: TNBS-induced mouse colitis model; test: TNBS-induced mouse colitis model; assay type: in vivo, C57BL/6J mice; settings: TNBS colitis mice; lead compound 25 mg/kg, compound a 50 mg/kg once a day, 8 days; TNBS model group 10.0 ± 1.63
Protocol: The dose of TNBS used in this experiment is 2.0 mg/50% alcohol enema, each with a volume of 100 μl. The preparation method is 40 μl of 5% TNBS (w/v) aqueous solution, 50 μl of absolute ethanol, and 10 μl of distilled water. well mixed.
The study bred C57BL/6J mice adaptively with ordinary diet for 1 week, in an ordinary clean environment, normal light and free drinking water. The mice were randomly divided into 3 groups and numbered, fasted without water for 24 h before modeling. After weighing the mouse, use isoflurane anesthesia, insert a rubber hose with a diameter of about 0.2–0.3 cm into the mouse 3.5 cm from the anus, and slowly push 100 μl of the 2.0 mg TNBS/50% alcohol mixture solution through the hose Enter the colon, slowly pull out the plastic tube after the administration, pinch the anus with your hand, and invert it for 1 min, so that the model agent can fully penetrate the intestinal cavity of the mouse. Then put them back into the breeding cage to keep lying down, wait for the mice to wake up naturally, and create a model together. The mice in the control group were given 200 μl of lead compound solution (25 mg/kg) once a day, the mice in the experimental group were given 200 μl of compound 1c solution (50 mg/kg) once a day, and the mice in the model group were given physiological salt once a day 200 μl of aqueous solution. […]

SMILES | melting point | IC50 (vanin-1) | IC50 (Vanin-1 enzyme [1]) | IC50 [2] | bioluminescence intensity at the peak relative to the blank group (vanin-1 enzyme [3]; 30 min after probe injection) | bioluminescence intensity of transgenic mice at the peak (vanin-1 enzyme [3]; about 30 min after probe injection) | DAI score [4]
CC(C)(CO)C(O)C(=O)NCCC(=O)Nc1ccc2c(C(F)(F)F)cc(=O)oc2c1 (centres unmarked) | 92.4 to 93.6 °C | – | – | – | – | – | –
CC(C)(CO)[C@@H](O)C(=O)NCCC(=O)Cc1ccccc1 [RR6] | – | 0.54 µM | – | – | – | – | –
O=C(c1ccc(NCc2cccnc2)cc1)N1CCC2(CCOCC2)C1 [a, (4-((pyridin-3-ylmethyl)amino)phenyl)(8-oxa-2-azaspiro[4.5]decan-2-yl)methanone] | 113.2 to 114.7 °C | – | 9.08 ± 0.57 µM | 20.2 ± 1.32 µM | about one-half | significantly reduced | 6.7 ± 0.95
O=C(c1ccc(NCc2cccnc2)cc1)N1CC2(CCOCC2)C1 [b, (4-((pyridin-3-ylmethyl)amino)phenyl)(7-oxa-2-azaspiro[3.5]nonan-2-yl)methanone] | 126.1 to 126.5 °C | – | 12.3 ± 1.28 µM | 26.2 ± 0.56 µM | – | – | –
O=C(c1ccc(NCc2cnccn2)cc1)N1CCC2(CCOCC2)C1 [c, (4-((pyrazin-2-ylmethyl)amino)phenyl)(8-oxa-2-azaspiro[4.5]decan-2-yl)methanone] | 173.4 to 173.8 °C | – | 16.5 ± 1.92 µM | 30.33 ± 0.11 µM | – | – | –
O=C(c1ccc(NCc2cnccn2)cc1)N1CC2(CCOCC2)C1 [d, (4-((pyrazin-2-ylmethyl)amino)phenyl)(7-oxa-2-azaspiro[3.5]nonan-2-yl)methanone] | 191.6 to 191.9 °C | – | 15.3 ± 0.75 µM | 28.5 ± 0.35 µM | – | – | –
O=C(c1ccc(NCc2cccnc2)cn1)N1CCC2(CCOCC2)C1 [e, (5-((pyridin-3-ylmethyl)amino)pyridin-2-yl)(8-oxa-2-azaspiro[4.5]decan-2-yl)methanone] | 176.5 to 177.2 °C | – | 35.8 ± 2.15 µM | 43.7 ± 1.07 µM | – | – | –
O=C(c1ccc(NCc2cccnc2)cn1)N1CC2(CCOCC2)C1 [f, (5-((pyridin-3-ylmethyl)amino)pyridin-2-yl)(7-oxa-2-azaspiro[3.5]nonan-2-yl)methanone] | 202 to 202.3 °C | – | 22 ± 2.66 µM | 46.2 ± 1.27 µM | – | – | –
O=C(c1ccc(NCc2cnccn2)cn1)N1CCC2(CCOCC2)C1 [g, (5-((pyrazin-2-ylmethyl)amino)pyridin-2-yl)(8-oxa-2-azaspiro[4.5]decan-2-yl)methanone] | 123.6 to 124.1 °C | – | 39.8 ± 0.91 µM | 51.5 ± 1.65 µM | – | – | –
O=C(c1ccc(NCc2cnccn2)cn1)N1CC2(CCOCC2)C1 [h, (5-((pyrazin-2-ylmethyl)amino)pyridin-2-yl)(7-oxa-2-azaspiro[3.5]nonan-2-yl)methanone] | 104.6 to 105 °C | – | 59.6 ± 5.27 µM | 84.6 ± 2.5 µM | – | – | –
COc1cc(C(=O)N2CCC3(CCOCC3)C2)ccc1NCc1cccnc1 [i, (3-methoxy-4-((pyridin-3-ylmethyl)amino)phenyl)(8-oxa-2-azaspiro[4.5]decan-2-yl)methanone] | 128.2 to 129.6 °C | – | 93.7 ± 8.08 µM | 115 ± 13 µM | – | – | –
COc1cc(C(=O)N2CC3(CCOCC3)C2)ccc1NCc1cccnc1 [j, (3-methoxy-4-((pyridin-3-ylmethyl)amino)phenyl)(7-oxa-2-azaspiro[3.5]nonan-2-yl)methanone] | 136.4 to 136.9 °C | – | 80.6 ± 6.21 µM | 138.3 ± 0.68 µM | – | – | –
